We go through one compound from patent US20250084043A1, “FORMULATION OF METAXALONE” (iCeutica Inc., priority 2013, published 2025).

Where two headings read alike, the source gives them in different places.

For data set [1] the following is noted: cited from earlier work.
Data set [2] is described as follows: Particle size distribution, Malvern Mastersizer 3000 laser particle size analyzer. The settings on record: aqueous dispersing medium. The format is physicochemical. How it is done:
Submicron sized metaxalone drug particles were prepared by dry milling metaxalone drug substance (40%) together with lactose monohydrate and sodium lauryl sulfate in an attritor mill containing stainless steel grinding media. The total batch size was approximately 1 kg. Milled powder was discharged out the bottom of the mill and collected for analysis and further processing. […] Table 1, below, includes size data for the milled and unmilled metaxalone.

As to `Cc1cc(C)cc(OCC2CNC(=O)O2)c1` (stereo not shown) [Metaxalone], in data set [1] (96% ethanol), the solubility entry was “soluble”. In addition, the solubility result in data set [1] (chloroform) is reported as “freely soluble”. Further, the solubility entry in data set [1] (ether) was “practically insoluble”. For the same compound, in data set [1] (methanol), the solubility entry is “soluble”. Besides, the solubility result in data set [1] (water) is reported as “practically insoluble”. In addition, in data set [2], the “D[4, 3]” value amounted to 47.3 μm; the Dv10 worked out at 16.0 μm; the Dv50 worked out at 43.3 μm; the Dv90 was 81.8 μm. The “Specific Surface Area” value in data set [2] turned out to be 199.7 m^2/kg.
